The text below walks through data of patent US8901118B2, “Compounds and methods for kinase modulation, and indications therefor” (Plexxikon Inc., priority 2010, dated 2014).

One assay addresses T1, BCR-NTRK1 BaF3 cells (Homo sapiens, UniProt P04629).
T1 construct: fused on or other part: P11274 (Breakpoint cluster region protein)
The assay is described as follows: BaF3 BCR-NTRK1 cell proliferation assay (ATPlite). Format: cell-based. As to conditions: read-out: Inhibition of Cell Proliferation IC50, BCR/BaF3 TrkA. The gist of the method: (§1)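 Proliferation was run for 3 days at 37 °C against 8-point 1:3 titrations with 10 μM as the top final concentration. Seeding was 10,000 cells/well for BaF3 BCR-fusion lines, grown without IL-3, and 25,000 cells/well for MV-4-11. IC50 was derived from ATPlite luminescence read as cell number.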
In general terms: In ATP-based viability assays light output follows the ATP content of the culture.

For a further assay, the target named is T2, BCR-NTRK3 BaF3 cells (Homo sapiens, UniProt Q16288).
T2 construct: fused on or other part: P11274 (Breakpoint cluster region protein)
The assay is described as follows: BaF3 BCR-NTRK3 cell proliferation assay (ATPlite). Conditions: read-out: Inhibition of Cell Proliferation IC50, BCR/BaF3 TrkC. Format: cell-based. Put shortly: as §1

The target of another assay is T3, CYP1A2 (Homo sapiens, UniProt P05177).
T3 sequence (P05177 1-516): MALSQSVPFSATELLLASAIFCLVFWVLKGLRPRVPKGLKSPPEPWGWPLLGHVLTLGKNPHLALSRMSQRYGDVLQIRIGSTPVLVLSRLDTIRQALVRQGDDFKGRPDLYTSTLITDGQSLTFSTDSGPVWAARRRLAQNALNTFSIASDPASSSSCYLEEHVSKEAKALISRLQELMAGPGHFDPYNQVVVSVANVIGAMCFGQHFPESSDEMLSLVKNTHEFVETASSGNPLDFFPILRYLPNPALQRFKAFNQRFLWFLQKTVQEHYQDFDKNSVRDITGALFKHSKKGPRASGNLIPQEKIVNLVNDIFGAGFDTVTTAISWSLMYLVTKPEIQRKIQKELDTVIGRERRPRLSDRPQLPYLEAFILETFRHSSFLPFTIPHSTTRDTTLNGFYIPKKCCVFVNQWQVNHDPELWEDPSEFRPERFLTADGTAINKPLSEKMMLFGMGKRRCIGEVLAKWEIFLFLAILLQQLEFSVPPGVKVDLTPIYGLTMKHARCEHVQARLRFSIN
Nature of the assay: CYP1A2 inhibition (fluorescent substrate CEC). Format: in vitro ADME. As to conditions: read-out: Cyp IC50 1A2. The gist of the method:
(§2)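 IC50 derives from metabolite fluorescence against compound concentration, read at excitation 409 nm and emission 460 nm for CYP1A2/2C19 or 530 nm for CYP2C9/2D6. Incubations ran at 37° C for 15 min (1A2), 45 min (2C9) or 30 min (2C19, 2D6), after serial dilution into NADPH cofactor mix and 10 min preincubation.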

For the next assay, the target named is CYP2C19 (Homo sapiens, UniProt P33261). The assay is described as follows: CYP2C19 inhibition (fluorescent substrate CEC). As to conditions: read-out: Cyp IC50 2C19. Format: in vitro ADME. Put shortly: as §2
Chain of CYP2C19 (P33261 whole entry): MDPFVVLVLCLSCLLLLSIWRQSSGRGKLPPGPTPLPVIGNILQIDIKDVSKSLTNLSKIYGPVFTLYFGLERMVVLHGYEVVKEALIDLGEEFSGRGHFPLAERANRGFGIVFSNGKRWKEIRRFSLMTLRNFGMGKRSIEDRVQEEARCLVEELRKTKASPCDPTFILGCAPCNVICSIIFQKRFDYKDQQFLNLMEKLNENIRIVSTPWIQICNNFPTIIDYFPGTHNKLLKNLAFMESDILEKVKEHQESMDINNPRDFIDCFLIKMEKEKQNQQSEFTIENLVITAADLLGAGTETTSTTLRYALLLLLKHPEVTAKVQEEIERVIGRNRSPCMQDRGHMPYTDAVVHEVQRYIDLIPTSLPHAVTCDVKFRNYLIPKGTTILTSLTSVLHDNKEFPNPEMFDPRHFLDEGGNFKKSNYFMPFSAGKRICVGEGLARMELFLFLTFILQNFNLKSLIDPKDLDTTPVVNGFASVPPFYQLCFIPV

T1 sequence (P04629 510-781): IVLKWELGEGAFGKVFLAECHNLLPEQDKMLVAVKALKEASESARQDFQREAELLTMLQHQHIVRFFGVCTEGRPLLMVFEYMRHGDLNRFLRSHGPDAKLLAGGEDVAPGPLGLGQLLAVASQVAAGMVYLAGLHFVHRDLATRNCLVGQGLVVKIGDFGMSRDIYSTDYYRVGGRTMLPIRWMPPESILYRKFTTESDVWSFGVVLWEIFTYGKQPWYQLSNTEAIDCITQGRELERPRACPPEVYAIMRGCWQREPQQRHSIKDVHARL
T2 sequence (Q16288 whole entry, the tested form may be a part): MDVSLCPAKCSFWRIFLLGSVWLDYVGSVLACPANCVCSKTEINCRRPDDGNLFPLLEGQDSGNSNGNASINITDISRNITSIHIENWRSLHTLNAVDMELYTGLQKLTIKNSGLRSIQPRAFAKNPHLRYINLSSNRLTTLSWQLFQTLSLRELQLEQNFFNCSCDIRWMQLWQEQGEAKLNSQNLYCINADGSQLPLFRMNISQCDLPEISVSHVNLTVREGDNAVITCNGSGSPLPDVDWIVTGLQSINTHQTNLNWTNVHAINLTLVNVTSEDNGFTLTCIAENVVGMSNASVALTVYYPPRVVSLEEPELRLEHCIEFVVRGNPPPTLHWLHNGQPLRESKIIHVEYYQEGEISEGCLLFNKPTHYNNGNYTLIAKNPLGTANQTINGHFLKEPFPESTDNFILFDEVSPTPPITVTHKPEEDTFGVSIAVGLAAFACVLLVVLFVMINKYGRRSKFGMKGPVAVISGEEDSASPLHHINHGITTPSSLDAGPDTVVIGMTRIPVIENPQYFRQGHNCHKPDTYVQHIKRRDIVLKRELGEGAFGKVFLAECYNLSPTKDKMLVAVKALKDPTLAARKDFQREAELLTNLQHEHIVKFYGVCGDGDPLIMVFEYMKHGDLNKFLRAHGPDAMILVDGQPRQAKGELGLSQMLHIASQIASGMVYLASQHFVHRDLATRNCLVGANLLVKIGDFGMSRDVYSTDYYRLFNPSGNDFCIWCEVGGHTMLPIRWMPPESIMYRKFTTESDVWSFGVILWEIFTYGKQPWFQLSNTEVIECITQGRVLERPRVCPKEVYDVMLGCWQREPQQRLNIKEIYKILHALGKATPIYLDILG

In the case of `CCc1ccc(Nc2ccc(Cc3c[nH]c4ncnc(OCCOC)c34)c(F)n2)cn1` [Compound P-4016, (6-Ethyl-pyridin-3-yl)-{6-fluoro-5-[4-(2-methoxy-ethoxy)-7H-pyrrolo[2,3-d]pyrimidin-5-ylmethyl]-pyridin-2-yl}-amine], the IC50 is less than 0.1 µM on BCR-NTRK1 BaF3 cells, less than 0.01 µM at BCR-NTRK3 BaF3 cells, greater than 10 µM at CYP1A2 and greater than 10 µM at CYP2C19.

Regarding `CCOc1ncnc2[nH]cc(Cc3ccc(Nc4ccc(C)nc4)nc3F)c12` [Compound P-4017, [5-(4-Ethoxy-7H-pyrrolo[2,3-d]pyrimidin-5-ylmethyl)-6-fluoro-pyridin-2-yl]-(6-methyl-pyridin-3-yl)-amine], the IC50 at BCR-NTRK1 BaF3 cells was less than 1 µM; at BCR-NTRK3 BaF3 cells, less than 0.1 µM; on CYP1A2, greater than 10 µM; on CYP2C19 it was greater than 10 µM.

`CCOc1ncnc2[nH]cc(Cc3ccc(Nc4ccc(OC)nc4)nc3F)c12` [Compound P-4018, [5-(4-Ethoxy-7H-pyrrolo[2,3-d]pyrimidin-5-ylmethyl)-6-fluoro-pyridin-2-yl]-(6-methoxy-pyridin-3-yl)-amine]: the IC50 is less than 0.1 µM on BCR-NTRK1 BaF3 cells, less than 0.01 µM on BCR-NTRK3 BaF3 cells, greater than 10 µM on CYP1A2 and less than 5 µM at CYP2C19.

Take `COCCOc1ncnc2[nH]cc(Cc3ccc(Nc4ccc(OC)nc4)nc3F)c12` [Compound P-4019, {6-Fluoro-5-[4-(2-methoxy-ethoxy)-7H-pyrrolo[2,3-d]pyrimidin-5-ylmethyl]-pyridin-2-yl}-(6-methoxy-pyridin-3-yl)-amine]: the IC50 on BCR-NTRK1 BaF3 cells was less than 1 µM; at BCR-NTRK3 BaF3 cells, less than 0.1 µM; at CYP1A2 it was greater than 10 µM; on CYP2C19, 5 to 10 µM.

Regarding `COc1ccc(Nc2ccc(C(=O)c3c[nH]c4ncnc(C5CC5)c34)c(F)n2)cn1` [Compound P-4022, (4-cyclopropyl-7H-pyrrolo[2,3-d]pyrimidin-5-yl)-[2-fluoro-6-(6-methoxy-pyridin-3-ylamino)-pyridin-3-yl]-methanone], the IC50 is less than 0.01 µM on BCR-NTRK1 BaF3 cells, less than 0.01 µM on BCR-NTRK3 BaF3 cells, greater than 10 µM at CYP1A2 and 5 to 10 µM at CYP2C19.

Turning to `COc1ccc(Nc2ccc(Cc3c[nH]c4ncnc(C5CC5)c34)c(F)n2)cn1` [Compound P-4023, [5-(4-cyclopropyl-7H-pyrrolo[2,3-d]pyrimidin-5-ylmethyl)-6-fluoro-pyridin-2-yl]-(6-methoxy-pyridin-3-yl)-amine], the IC50 at BCR-NTRK1 BaF3 cells was less than 0.1 µM; at BCR-NTRK3 BaF3 cells, less than 0.01 µM; on CYP1A2, greater than 10 µM; on CYP2C19, less than 5 µM.

With `CCOc1ccc(Nc2ccc(C(=O)c3c[nH]c4ncnc(OC)c34)c(F)n2)cn1` [Compound P-4024, [6-(6-Ethoxy-pyridin-3-ylamino)-2-fluoro-pyridin-3-yl]-(4-methoxy-7H-pyrrolo[2,3-d]pyrimidin-5-yl)-methanone], the IC50 on BCR-NTRK1 BaF3 cells was less than 0.1 µM; at BCR-NTRK3 BaF3 cells, less than 0.1 µM; at CYP1A2 it was greater than 10 µM; at CYP2C19, greater than 10 µM.

As to `CCOc1ncnc2[nH]cc(C(=O)c3ccc(Nc4ccc(OC)nc4)nc3F)c12` [Compound P-4025, (4-Ethoxy-7H-pyrrolo[2,3-d]pyrimidin-5-yl)-[2-fluoro-6-(6-methoxy-pyridin-3-ylamino)-pyridin-3-yl]-methanone], the IC50 on BCR-NTRK1 BaF3 cells was less than 0.1 µM; at BCR-NTRK3 BaF3 cells, less than 0.1 µM; on CYP1A2, greater than 10 µM; on CYP2C19 it was 5 to 10 µM.

`CCc1ccc(Nc2ccc(Cc3c[nH]c4ncnc(C5CC5)c34)c(F)n2)cn1` [Compound P-4028, [5-(4-Cyclopropyl-7H-pyrrolo[2,3-d]pyrimidin-5-ylmethyl)-6-fluoro-pyridin-2-yl]-(6-ethyl-pyridin-3-yl)-amine]: the IC50 at BCR-NTRK1 BaF3 cells is less than 0.01 µM; on BCR-NTRK3 BaF3 cells, less than 0.01 µM; on CYP1A2 it was greater than 10 µM; on CYP2C19, 5 to 10 µM.

For `CCc1ccc(Nc2ccc(C(=O)c3c[nH]c4ncnc(C5CC5)c34)c(F)n2)cn1` [Compound P-4029, (4-Cyclopropyl-7H-pyrrolo[2,3-d]pyrimidin-5-yl)-[6-(6-ethyl-pyridin-3-ylamino)-2-fluoro-pyridin-3-yl]-methanone], the IC50 at BCR-NTRK1 BaF3 cells was less than 0.01 µM; on BCR-NTRK3 BaF3 cells it was less than 0.01 µM; on CYP1A2 it was greater than 10 µM; on CYP2C19, greater than 10 µM.

Consider `Cc1ccc(Nc2ccc(Cc3c[nH]c4ncnc(C5CC5)c34)c(F)n2)cn1` [Compound P-4030, [5-(4-Cyclopropyl-7H-pyrrolo[2,3-d]pyrimidin-5-ylmethyl)-6-fluoro-pyridin-2-yl]-(6-methyl-pyridin-3-yl)-amine], for which the IC50 on BCR-NTRK1 BaF3 cells is less than 1 µM; on BCR-NTRK3 BaF3 cells it was less than 0.1 µM; on CYP1A2, greater than 10 µM; at CYP2C19, 5 to 10 µM.

With `Cc1ccc(Nc2ccc(C(=O)c3c[nH]c4ncnc(C5CC5)c34)c(F)n2)cn1` [Compound P-4031, (4-Cyclopropyl-7H-pyrrolo[2,3-d]pyrimidin-5-yl)-[2-fluoro-6-(6-methyl-pyridin-3-ylamino)-pyridin-3-yl]-methanone], the IC50 on BCR-NTRK1 BaF3 cells is less than 0.1 µM; on BCR-NTRK3 BaF3 cells, less than 0.01 µM; on CYP1A2 it was greater than 10 µM; on CYP2C19, greater than 10 µM.

Consider `CCn1cc(Nc2ccc(Cc3c[nH]c4ncnc(C5CC5)c34)c(F)n2)cn1` [Compound P-4036, [5-(4-Cyclopropyl-7H-pyrrolo[2,3-d]pyrimidin-5-ylmethyl)-6-fluoro-pyridin-2-yl]-(1-ethyl-1H-pyrazol-4-yl)-amine], for which the IC50 is less than 1 µM on BCR-NTRK1 BaF3 cells, less than 0.1 µM at BCR-NTRK3 BaF3 cells, 5 to 10 µM on CYP1A2 and 5 to 10 µM at CYP2C19.

As to `Fc1nc(NC2CCC(F)(F)CC2)ccc1Cc1c[nH]c2ncnc(NCC(F)(F)F)c12` [Compound P-4128, 5-[[6-[(4,4-difluorocyclohexyl)amino]-2-fluoro-3-pyridyl]methyl]-N-(2,2,2-trifluoroethyl)-7H-pyrrolo[2,3-d]pyrimidin-4-amine], the IC50 was less than 1 µM at BCR-NTRK1 BaF3 cells, less than 0.1 µM at BCR-NTRK3 BaF3 cells, greater than 10 µM at CYP1A2 and greater than 10 µM on CYP2C19.

As for `Fc1nc(NC2CCC(F)(F)CC2)ccc1Cc1c[nH]c2ncnc(NC3CC3)c12` [Compound P-4129, N-cyclopropyl-5-[[6-[(4,4-difluorocyclohexyl)amino]-2-fluoro-3-pyridyl]methyl]-7H-pyrrolo[2,3-d]pyrimidin-4-amine], the IC50 at BCR-NTRK1 BaF3 cells was less than 1 µM; at BCR-NTRK3 BaF3 cells, less than 0.1 µM; on CYP1A2 it was greater than 10 µM; at CYP2C19 it was greater than 10 µM.

With `Fc1nc(Nc2ccc(C3CC3)nc2)ccc1Cc1c[nH]c2ncnc(NCC(F)(F)F)c12` [Compound P-4130, 5-[[6-[(6-cyclopropyl-3-pyridyl)amino]-2-fluoro-3-pyridyl]methyl]-N-(2,2,2-trifluoroethyl)-7H-pyrrolo[2,3-d]pyrimidin-4-amine], the IC50 at BCR-NTRK1 BaF3 cells was less than 0.1 µM; on BCR-NTRK3 BaF3 cells, less than 0.01 µM; at CYP1A2, greater than 10 µM; at CYP2C19, less than 5 µM.
